The test has as its target T1, Ns H-NOX (Nostoc sp. PCC 7120 = FACHB-418, UniProt A0ACD6B960, C139A).
T1 construct: gene alr2278
The test can be described thus: 1H-15N HSQC NMR titration (chemical shift perturbation). The format is binding. The conditions noted are these: 298 K; heme-bound, no NO; surface site next to heme; one KD per perturbed residue.

The values below come from PMC9247194, “Mapping of the sGC Stimulator BAY 41-2272 Binding Site on H-NOX Domain and Its Regulation by the Redox State of the Heme” (Frontiers in Cell and Developmental Biology, 2022).

T1 sequence (A0ACD6B960 entry or part of it C139A): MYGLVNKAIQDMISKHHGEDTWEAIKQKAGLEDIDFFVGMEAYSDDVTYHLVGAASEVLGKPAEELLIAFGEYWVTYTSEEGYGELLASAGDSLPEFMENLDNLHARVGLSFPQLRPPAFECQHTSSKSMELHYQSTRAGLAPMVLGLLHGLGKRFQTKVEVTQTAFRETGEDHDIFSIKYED

Consider `Nc1nc(-c2nn(Cc3ccccc3F)c3ncccc23)ncc1C1CC1` [BAY 41-2272], for which the KD entry is reported as “yielding the binding constant (K D ) for each residue”.
